Reference: patent publication US20030236288A1, “Use of substituted 3-phenyl-5-alkoxy-3H-(1,3,4)-oxadizol-2-ones for inhibiting pancreatic lipase” (priority 2002, published 2003)

How the values were obtained:
pancreatic lipase (PL) = molecular target: T1, pancreatic lipase (PL) (Sus scrofa, UniProt P00591); assay: Pancreatic lipase inhibition assay (release of radiolabeled oleate from glycerol tri[9,10(n)-3H]oleate/tripalmitin substrate); format: biochemical; settings: enriched lipase preparation from porcine pancreas; 30° C., 30 min; up to 8 concentrations
T1 construct: Enriched preparation from porcine pancreas; purchased Sigma L-0382; host or cells: porcine pancreas (tissue preparation)
T1 sequence (P00591 1-450): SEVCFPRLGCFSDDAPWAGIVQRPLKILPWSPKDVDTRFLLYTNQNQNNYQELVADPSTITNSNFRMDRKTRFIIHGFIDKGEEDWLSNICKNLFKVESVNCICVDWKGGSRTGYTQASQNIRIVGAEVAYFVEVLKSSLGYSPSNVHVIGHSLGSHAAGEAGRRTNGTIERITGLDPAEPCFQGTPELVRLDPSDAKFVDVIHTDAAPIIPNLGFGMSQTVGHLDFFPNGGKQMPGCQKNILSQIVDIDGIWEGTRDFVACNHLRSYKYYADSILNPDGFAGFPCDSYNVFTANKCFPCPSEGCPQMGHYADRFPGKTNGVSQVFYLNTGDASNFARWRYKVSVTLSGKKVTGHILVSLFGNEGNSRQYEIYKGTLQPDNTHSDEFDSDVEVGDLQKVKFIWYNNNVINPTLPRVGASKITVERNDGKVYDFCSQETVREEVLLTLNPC
Description: The activity of the compounds was assayed as follows:
1. Preparation of the substrate:
80 μL of tripalmitin (85 mM in chloroform) are mixed with 5 μL of glycerol tri[9,10(n)-^3H]oleate (5 mCi/mL in toluene) in a 12 mL polypropylene vessel. Evaporation in a rotary evaporator (50° C.) and addition of 4 mL of 200 mM Tris/HCl (pH 7.6), 0.8% TX-100 are followed by ultrasound treatment of the mixture (Branson B-12 sonifier, output level 4, 3×2 min with 1 min intervals on ice) until a homogeneous milky suspension is produced.
Lipase buffer: 80 mM Tris/HCl (pH 7.6), 600 mM NaCl, 8 mM CaCl2, 8 mM benzamidine, 2 mM Pefabloc (Roche Biochemicals) (add the inhibitors only on the day of the assay)
Pancreatic lipase: Enriched preparation from porcine pancreas (Sigma order No. L-0382) dissolved in lipase buffer (100 000 units/500 μL)
5 μL of test substance (in 100% DMSO) or DMSO (control) are mixed with 10 μL of substrate and 5 μL of lipase (in this sequence) and incubated at 30° C. (Eppendorf Thermomixer, 350 min^−1) for 30 min. After addition of 325 μL of methanol/chloroform/n-heptane (10/9/7) and 105 μl of 0.1 M K2CO3, 0.1 M H3BO3 (pH 10.5 adjusted with 1 M KOH) and vigorous mixing, the phases are separated by centrifugation (8000 rpm, Eppendorf centrifuge, 4° C.). 140 μL portions of the aqueous supernatant (contains the liberated radiolabeled oleate; 70% recovery) are transferred into 20 mL scintillation vials and mixed with 6 mL of scintillation cocktail (Beckman Ready Safe). After vigorously mixing and incubating at room temperature for 2 h, the radioactivity is measured in a liquid scintillation counter (Beckman, L8008, tritium channel with quench curve, measurement time 20 min).
Substances are routinely tested in each concentration in three independent incubation mixtures each with duplicate determination after phase separation (SD<0.02). Background values (reaction under the same conditions but without lipase) are subtracted from all values (corresponds predominantly to the content of glycerol trioleate or free oleate in the substrate preparation in the aqueous phase, <5% of the radioactivity employed). The inhibition of the pancreatic lipase enzymatic activity by a test substance is determined by comparison with an uninhibited control reaction (presence of lipase=0% inhibition; absence of lipase 100% inhibition in each case after background correction). The IC50 is calculated from an inhibition plot with up to 8 concentrations of the test substance. The software package GRAPHIT (Elsevier-BIOSOFT) is used for curve fitting and IC50 determination.

For `COc1nn(-c2ccc(Oc3ccccc3)cc2)c(=O)o1`, which melting point is on record?
The melting point was 83 °C.

With `COc1nn(-c2ccc(NC(=O)c3ccc(Cl)cc3)c(OCc3ccc(F)cc3)c2)c(=O)o1` [Example 46, 5-Methoxy-3-(4-(4-chlorobenzoylamino)-3-(4-fluorobenzyloxy)phenyl)-3H-(1,3,4)-oxadiazol-2-one] as the compound, how does the melting point read?
The melting point was 167 °C.

For `COc1nn(-c2cccc(NC(=O)Nc3ccccn3)c2)c(=O)o1` [Example 59, 5-Methoxy-3-(3-(pyrid-2-yl)aminocarbonylaminophenyl)-3H-(1,3,4)-oxadiazol-2-one], which melting point is on record?
Its melting point is 81 °C.

For `COc1nn(-c2ccc(NC(=O)c3ccc(C(F)(F)F)cc3)c(OCc3ccccc3)c2)c(=O)o1` [Example 86, 5-Methoxy-3-(3-benzyloxy-4-(4-trifluoromethylbenzoylamino)phenyl)-3H-(1,3,4)-oxadiazol-2-one], which IC50 (pancreatic lipase (PL)) is on record?
Its IC50 is 1.5 µM.

For `COc1nn(-c2ccc(S(=O)(=O)N3CCOCC3)cc2)c(=O)o1` [Example 208, 3-(4-Morpholinosulfonylphenyl)-5-methoxy-3H-(1,3,4)-oxadiazol-2-one], which melting point is on record?
The melting point was 164 °C.

Which melting point does the source give for `COc1nn(-c2ccc(OC(F)(F)F)cc2)c(=O)o1` [Example 209, 3-(4-Trifluoromethoxyphenyl)-5-methoxy-3H-(1,3,4)-oxad iazol-2-one] here?
Its melting point is 52 °C.

Which IC50 (pancreatic lipase (PL)) does the source give for `CCOc1nn(-c2ccc(OC(F)(F)F)cc2)c(=O)o1` [Example 210, 3-(4-Trifluoromethoxyphenyl)-5-ethoxy-3H-(1,3,4)-oxad iazol-2-one] here?
Its IC50 is 0.7 µM.

What about the melting point of the same compound?
Its melting point is 63 °C.

For `CCCCOc1nn(-c2ccc(OC(F)(F)F)cc2)c(=O)o1` [Example 212, 3-(4-Trifluoromethoxyphenyl)-5-butoxy-3H-(1,3,4)-oxadiazol-2-one], which IC50 (pancreatic lipase (PL)) is on record?
Its IC50 is 0.5 µM.

For `O=c1oc(OCc2ccccc2)nn1-c1ccc(OC(F)(F)F)cc1` [Example 213, 3-(4-Trifluoromethoxyphenyl)-5-benzyloxy-3H-(1,3,4)-oxad iazol-2-one], which IC50 (pancreatic lipase (PL)) is on record?
The IC50 was 0.5 µM.

With `COc1nn(-c2ccc(S(=O)(=O)NC3CC(C)CC(C)(C)C3)cc2)c(=O)o1` (centres unmarked) [Example 214, 3-(4-(3,3,5-Trimethylcyclohexylaminosulfonyl)phenyl)-5-methoxy-3H-(1,3,4)-oxadiazol-2-one] as the compound, how does the melting point read?
The melting point was 164 °C.

With `CCOc1nn(-c2ccc(OC3CC(C)(C)CC(C)(C)C3)cc2)c(=O)o1` [Example 215, 3-(4-(3,3,5,5-Tetramethylcyclohexyloxy)phenyl)-5-ethoxy-3H-(1,3,4)-oxad iazol-2-one] as the compound, how does the melting point read?
Its melting point is 111 °C.

Which IC50 (pancreatic lipase (PL)) does the source give for `COc1nn(-c2cccc(OCc3ccccc3)c2)c(=O)o1` [Example 216, 3-(3-Benzyloxyphenyl)-5-methoxy-3H-(1,3,4)-oxadiazol-2-one] here?
The IC50 was 0.8 µM.

With `CCOc1nn(-c2cccc(OC(F)(F)F)c2)c(=O)o1` [Example 218, 3-(3-Trifluoromethoxyphenyl)-5-ethoxy-3H-(1,3,4)-oxad iazol-2-one] as the compound, how does the IC50 (pancreatic lipase (PL)) read?
The IC50 was 0.7 µM.

Which IC50 (pancreatic lipase (PL)) does the source give for `CC(C)Oc1nn(-c2cccc(OC(F)(F)F)c2)c(=O)o1` [Example 220, 3-(3-Trifluoromethoxyphenyl)-5-isopropoxy-3H-(1,3,4)-oxadiazol-2-one] here?
The IC50 was 1.8 µM.

For `COc1nn(-c2ccc(Oc3ccc(Cl)cc3)cc2)c(=O)o1` [Example 229, 3-(4-(4-Chlorophenoxy)phenyl)-5-methoxy-3H-(1,3,4)-oxad iazol-2-one], which IC50 (pancreatic lipase (PL)) is on record?
Its IC50 is 0.6 µM.

And the melting point?
Its melting point is 68 °C.

For `COc1nn(-c2cccc(Oc3ccccc3)c2)c(=O)o1` [Example 232, 3-(3-Phenoxyphenyl)-5-methoxy-3H-(1,3,4)-oxad iazol-2-one], which melting point is on record?
The melting point was 89 °C.

Which melting point does the source give for `CCOc1nn(-c2cccc(Oc3ccccc3)c2)c(=O)o1` [Example 233, 3-(3-Phenoxyphenyl)-5-ethoxy-3H-(1,3,4)-oxadiazol-2-one] here?
The melting point was 50 °C.

With `COc1nn(-c2cccc(OC3CC(C)(C)CC(C)(C)C3)c2)c(=O)o1` [Example 237, 3-(3-(3,3,5,5-Tetramethylcyclohexyloxy)phenyl)-5-methoxy-3H-(1,3,4)-oxadiazol-2-one] as the compound, how does the melting point read?
The melting point was 68 °C.

Which melting point does the source give for `COc1nn(-c2ccc(-c3ccccc3)cc2)c(=O)o1` [Example 238, 3-(4-Phenylphenyl)-5-methoxy-3H-(1,3,4)-oxadiazol-2-one] here?
The melting point was > 260 °C (dec.).

With `COc1nn(-c2cccc(COc3cccc(C)c3)c2)c(=O)o1` [Example 239, 3-(3-(3-Methylphenoxymethyl)phenyl)-5-methoxy-3H-(1,3,4)-oxadiazol-2-one] as the compound, how does the melting point read?
Its melting point is 47 °C.

With `COc1nn(-c2cccc(-c3ccccc3)c2)c(=O)o1` [Example 240, 3-(3-Phenylphenyl)-5-methoxy-3H-(1,3,4)-oxadiazol-2-one] as the compound, how does the melting point read?
Its melting point is 80 °C.
